The values below come from ChEMBL document CHEMBL1201862, “PubChem BioAssay data set” (2004).

Molecules are shown by their SMILES.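 All cell lines were grown in 96-well plates and treated with compound for 48 hours. GI50 marks 50% less growth.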 Active and inactive are the calls of the source. Cut-off read from the data, not from the text of the source: active = GI50 up to about 1.1 µM and inactive = higher. Square brackets hold non-standard residues; d marks the D form. Peptide text beside a SMILES is read from it. 2Nal = N[CH](Cc1ccc2ccccc2c1)C(=O)O Bounds are passed on as bounds.

Holding throughout (test): inhibition of tumour cell growth, NCI panel, 48 h
For assay [1], the system named is UO-31.
Assay [2] relates to MDA-MB-435.
The test system of assay [3] is OVCAR-4.
In assay [4] the test system is A498.
Assay [5] has as its system ACHN.
The subject of assay [6] is SR.
Assay [7] deals with EKVX.
Assay [8] has as its system OVCAR-8.
Assay [9] has as its system CAKI-1.
For assay [10], the system named is NCI-H522.
The subject of assay [11] is HCT-116.
In assay [12] the test system is LOX IMVI.
Assay [13] concerns SK-MEL-2.
Assay [14] deals with M14.
Assay [15] deals with MCF7.
In assay [16] the test system is SK-MEL-28.
The test system of assay [17] is T47D.
For assay [18], the system named is MOLT-4.
Assay [19] relates to 786-0.
For assay [20], the system named is SF-539.

As to `Cc1cccc(CNc2[nH]cnc3nncc2-3)c1`, the GI50 in assay [1] is 47.4 µM (inactive); in [2], > 100 µM (inactive); in assay [3], 87.7 µM (inactive); in [4], 40.6 µM (inactive); in [5] it was 75.7 µM (inactive); in assay [6], 43.5 µM (inactive). Further, the GI50 in [7] is 37.2 µM (inactive); in [8], 49.1 µM (inactive); in assay [9] it was 80.7 µM (inactive); in [10] it was 56.5 µM (inactive); in assay [11], > 100 µM (inactive); in assay [12], > 100 µM (inactive). The GI50 is > 100 µM (inactive) in [13]; > 100 µM (inactive) in assay [14]; > 100 µM (inactive) in assay [15]; > 100 µM (inactive) in [16]; 78.3 µM (inactive) in [17]; 58.2 µM (inactive) in assay [18]. The GI50 in assay [19] and in assay [20] was > 100 µM (inactive) throughout.

With `Cn1c(=O)c2nc(COCc3nc4c(=O)n(C)c(=O)n(C)c4[nH]3)[nH]c2n(C)c1=O`, the GI50 in assay [1], in [2], in assay [3], in assay [4], in assay [5] and in [6] was > 100 µM (inactive) throughout. Further, the GI50 in assay [7], in assay [8], in assay [9], in [10], in assay [11] and in assay [12] was > 100 µM (inactive) each time. Also, the GI50 in assay [13], in [14], in [15], in assay [16], in assay [17] and in [18] was > 100 µM (inactive) in each case. Also, the GI50 in assay [19] and in assay [20] was > 100 µM (inactive) throughout.

`Cc1c(C)n(-c2ccccc2)c2nc(S(C)(=O)=O)nc(S(C)(=O)=O)c12`: the GI50 is 1.71 µM (inactive) in assay [1]; 1.79 µM (inactive) in assay [2]; 1.65 µM (inactive) in [3]; 14.1 µM (inactive) in assay [4]; 1.57 µM (inactive) in [5]; 1 µM (active) in assay [6]. Besides, the GI50 in assay [7] is 5.41 µM (inactive); in [8] it was 2.19 µM (inactive); in assay [9], 0.171 µM (active); in assay [10], 1.75 µM (inactive); in [11], 1.53 µM (inactive); in assay [12], 1.71 µM (inactive). Further, the GI50 was 2.07 µM (inactive) in assay [13]; 1.62 µM (inactive) in assay [14]; 1.25 µM (inactive) in assay [15]; 2.53 µM (inactive) in [16]; 2.05 µM (inactive) in assay [17]; 1.48 µM (inactive) in assay [18]. Moreover, the GI50 in assay [19] was 1.28 µM (inactive); in assay [20], 14 µM (inactive).

In the case of `O=c1c2cc(I)ccc2nc(S)n1Cc1ccccc1`, the GI50 was 0.543 µM (active) in [1]; 83.6 µM (inactive) in assay [2]; 9.71 µM (inactive) in assay [3]; 18.8 µM (inactive) in [4]; 4.49 µM (inactive) in [5]; 30.7 µM (inactive) in assay [6]. Besides, the GI50 in assay [7] was 5.52 µM (inactive); in [8] it was 23.1 µM (inactive); in [9], 1.92 µM (inactive); in assay [10], 3.96 µM (inactive); in assay [11], 9.14 µM (inactive); in assay [12], 37.8 µM (inactive). The GI50 in assay [13] is 14.6 µM (inactive); in assay [14], 9.25 µM (inactive); in assay [15] it was 28.1 µM (inactive); in assay [16], 43.2 µM (inactive); in assay [17] it was > 100 µM (inactive); in [18], > 100 µM (inactive). Moreover, the GI50 is 11.5 µM (inactive) in assay [19] and 15.5 µM (inactive) in [20].

For `O=c1[nH]c(=O)n(C2OC(CO)C(O)C2O)c2c1CCCC2` (stereo not given), the GI50 in assay [1], in assay [2], in assay [3], in assay [4], in [5] and in [6] was > 100 µM (inactive) each time. Also, the GI50 in assay [7], in assay [8], in assay [9], in assay [10], in [11] and in assay [12] was > 100 µM (inactive) each time. In addition, the GI50 in assay [13], in assay [14], in assay [15], in [16], in assay [17] and in [18] was > 100 µM (inactive) each time. The GI50 in assay [19] and in assay [20] was > 100 µM (inactive) in each case.

Regarding `COc1ccc(-c2cc(-c3ccc(Nc4ccnc5cc(Cl)ccc45)cc3)nc(N)c2C#N)cc1`, the GI50 in [1] is 27.4 µM (inactive); in assay [2] it was > 100 µM (inactive); in assay [3] it was > 100 µM (inactive); in assay [4], > 100 µM (inactive); in [5], > 100 µM (inactive); in [6], > 100 µM (inactive). For the same molecule, the GI50 in assay [7], in assay [8], in [9], in assay [10], in assay [11] and in assay [12] was > 100 µM (inactive) in each case. In addition, the GI50 in assay [13], in [14], in [15], in assay [16], in [17] and in assay [18] was > 100 µM (inactive) each time. In addition, the GI50 in [19] and in assay [20] was > 100 µM (inactive) in each case.

Regarding `O=C(CCCN1CCC2(CC1)CC(c1ccccc1)OC2=O)c1ccc(F)cc1` (stereo not given), the GI50 in [1] is 19.4 µM (inactive); in [2] it was 41.3 µM (inactive); in assay [3], 37.9 µM (inactive); in [4] it was 24 µM (inactive); in assay [5] it was 54.6 µM (inactive); in assay [6], 19.6 µM (inactive). Moreover, the GI50 in assay [7] was > 100 µM (inactive); in assay [8] it was > 100 µM (inactive); in [9], 24.5 µM (inactive); in [10] it was > 100 µM (inactive); in [11], 33.8 µM (inactive); in assay [12], 19.6 µM (inactive). Moreover, the GI50 in assay [13] was 35.1 µM (inactive); in assay [14] it was 15.8 µM (inactive); in assay [15], 35.2 µM (inactive); in assay [16] it was 39.4 µM (inactive); in assay [17] it was 16.2 µM (inactive); in assay [18] it was 28.3 µM (inactive). The GI50 in [19] is 24.1 µM (inactive); in assay [20], 28.4 µM (inactive).

In the case of `COc1cc(OC)c2c(c1)OC(c1cccnc1)C(c1ccccc1)C2=O` (stereo not given), the GI50 in assay [1] is 35.8 µM (inactive); in assay [2], 84.5 µM (inactive); in assay [3], 80.2 µM (inactive); in assay [4], > 100 µM (inactive); in [5], > 100 µM (inactive); in assay [6], > 100 µM (inactive). In addition, the GI50 in assay [7] was > 100 µM (inactive); in assay [8] it was 59.3 µM (inactive); in assay [9], 74.8 µM (inactive); in assay [10], 72.1 µM (inactive); in assay [11], > 100 µM (inactive); in assay [12], > 100 µM (inactive). For the same molecule, the GI50 was 34.4 µM (inactive) in [13]; > 100 µM (inactive) in assay [14]; > 100 µM (inactive) in [15]; > 100 µM (inactive) in assay [16]; 52 µM (inactive) in assay [17]; > 100 µM (inactive) in [18]. The GI50 in assay [19] and in assay [20] was > 100 µM (inactive) each time.

As for `CCc1c(Cc2cc(C)cc(C)c2)n2c(nc1=O)SCC2CBr` (stereo not given), the GI50 is > 50 µM (inactive) in [1]; > 50 µM (inactive) in assay [2]; 46.1 µM (inactive) in assay [3]; 28.7 µM (inactive) in [4]; > 50 µM (inactive) in [5]; > 50 µM (inactive) in [6]. Further, the GI50 was 27 µM (inactive) in [7]; 10.4 µM (inactive) in assay [8]; > 50 µM (inactive) in assay [9]; 27.4 µM (inactive) in [10]; > 50 µM (inactive) in assay [11]; > 50 µM (inactive) in [12]. In addition, the GI50 in [13] is 44.4 µM (inactive); in assay [14] it was > 50 µM (inactive); in assay [15], 29.4 µM (inactive); in assay [16] it was > 50 µM (inactive); in [17] it was 22.6 µM (inactive); in [18], 34 µM (inactive). In addition, the GI50 in assay [19] and in assay [20] was > 50 µM (inactive) throughout.

As to `CC(C)C(NC(=O)C(CCCCN)NC(=O)C(Cc1c[nH]c2ccccc12)NC(=O)C(Cc1ccc(O)cc1)NC(=O)C(CS)NC(=O)C(N)Cc1ccc2ccccc2c1)C(=O)NC(CS)C(=O)NC(C(N)=O)C(C)O` (stereo not given) (H-[2Nal]CYWKVCT-NH2; configuration not given here), the GI50 in assay [1], in assay [2], in assay [3], in assay [4], in [5] and in [6] was > 12.5 µM (inactive) in each case. Moreover, the GI50 in assay [7], in assay [8], in assay [9], in assay [10], in assay [11] and in assay [12] was > 12.5 µM (inactive) throughout. Further, the GI50 is > 12.5 µM (inactive) in assay [13]; > 12.5 µM (inactive) in assay [14]; > 12.5 µM (inactive) in [15]; > 100 µM (inactive) in assay [16]; > 12.5 µM (inactive) in assay [17]; > 12.5 µM (inactive) in assay [18]. Moreover, the GI50 in assay [19] and in [20] was > 12.5 µM (inactive) throughout.
